Measured values taken from patent US6737400B2, “Method and composition for treating irritable bowel syndrome using low doses of opioid receptor antagonists” (Albert Einstein College of Medicine of Yeshiva University, priority 1999, dated 2004).

Columns and labels:
[1] = system: opioid analgesia in postsurgical patients; details: cited from earlier work; for Effect on analgesic potency of morphine: low-dose cotreatment with morphine, postsurgical patients, 24-hour test periods
[2] = system: IBS patients; details: 30 mg, three times daily; cited from earlier work
[3] = system: constipation-predominant IBS patients; details: eight patients, 16 mg three times a week, eight weeks; cited from earlier work
[4] = system: patients with IBS; assay: Open clinical study of low dose naltrexone in patients with IBS (daily symptom diary, global self-assessment); format: in vivo, human
Description: An open study of low dose naltrexone administration in four (4) patients with IBS was initiated. The patients were evaluated for IBS, based on the Rome criteria. All patients were screened for other disorders or medications that could cause gastrointestinal symptoms of IBS. These included inflammatory bowel disease, cancer, lactose intolerance, and neurological disorders, as well as the use of narcotic medications. […] Each subject was fully informed of the benefits and possible side effects of the study and thereafter freely gave their consent to participate in the study.
Each patient maintained a daily diary of the symptoms prior to and during treatment with 1-3 mg/day of naltrexone. Each participant noted the following symptoms:
Patients were permitted to remain on medications other than anticholinergics and anti-diarrheal agents (i.e., fiber bulking agents or lactose enzyme replacement if needed).
Naltrexone (tradename Revia; 50 mg tablets; DuPont Merck) was purchased at a pharmacy. Single tablets were crushed and dissolved in 50 ml boiled distilled water, and stored unfrozen in a refrigerator. Each patient received 2 ml (2 mg) orally each morning with breakfast. Medication was prepared weekly and used for seven doses, with the remainder being discarded.

[5] = Patient A, after 24 months, 2.5-3.0 mg/day
[6] = Patient B, after 12 months, 1.5-2.3 mg/day
[7] = Patient D, after 9 months, 2.5-3.0 mg/day

Compound: C=C1CC[C@@]2(O)[C@H]3Cc4ccc(O)c5c4[C@@]2(CCN3CC2CC2)[C@H]1O5 [nalmefene]
- Effect on morphine's analgesic potency ([1]; ca. 15 μg, IV): markedly enhance morphine's analgesic potency
- Effect on opioid analgesia ([1]; doses of >0.5 mg): markedly attenuate opioid analgesia
- Effect on analgesic potency of morphine [1]: markedly enhanced the analgesic potency of morphine

Compound: fedotizine
- Treatment of IBS [2]: successful treatment

Compound: C=C1CCC2(O)C3Cc4ccc(OC5OC(C(=O)O)C(O)C(O)C5O)c5c4C2(CCN3CC2CC2)C1O5 (stereo not shown) [nalmefene glucuronide, Nalmefene glucuronide]
- Abdominal pain or bloating [3]: did not reduce abdominal pain or bloating
- Stool consistency [3]: not improved
- Stool frequency [3]: increased stool frequency
- Transit time [3]: decreased transit time

Compound: C=CCN1CC[C@]23c4c5ccc(O)c4O[C@H]2C(=O)CC[C@@]3(O)[C@H]1C5 [naloxone]
- Effect on analgesic potency of morphine [1]: markedly enhanced the analgesic potency of morphine

Compound: O=C1CC[C@@]2(O)[C@H]3Cc4ccc(O)c5c4[C@@]2(CCN3CC2CC2)[C@H]1O5 [naltrexone]
- Abdominal cramping [4, 5]: completely ceased
- Frequency of bowel actions [4, 5]: returned to normal levels
- Cramping abdominal pain ([4]; Patient A, after nine months of treatment): no cramping abdominal pain
- Stool frequency ([4]; Patient A, after nine months of treatment, oral daily, before treatment about 4-8 times per day): 1-2 formed bowel movements per day
- Global improvement on the 0-4 scale ([4]; Patient A, 0 = no observable change, 4 = marked and substantially improved): 4
- Global improvement on the 0-4 scale ([4]; Patient B): 3
- Frequency of bowel actions [4, 6]: no change
- Reduction in abdominal cramping [4, 6]: 50%
- Abdominal pain associated with cramping ([4]; Patient B, after 75 days of treatment): total elimination of abdominal pain associated with cramping
- Stool frequency ([4]; Patient B, after 75 days of treatment, before treatment 10-12 diarrheal movements per day): 2-4 bowel movements per day
- Global improvement on the 0-4 scale ([4]; Patient C): 2.5
- IBS symptoms ([4]; Patient C, 24 month follow-up, diagnosed with fibromyalgia, 1-2 mg/day, stopped after 6 months): did not respond
- Abdominal pain associated with cramping ([4]; Patient C, after 75 days of 2 mg/day): eliminated
- Frequency of loose bowel movements ([4]; Patient C, after 75 days of 2 mg/day, before treatment 2-3 loose bowel movements daily): halved in frequency
- Global improvement on the 0-4 scale ([4]; Patient D): 2.5
- Decrease in cramping [4, 7]: 75%
- Reduction in frequency of bowel actions [4, 7]: 20%
- IBS symptoms after treatment was halted ([4]; Patient D, low-dose treatment halted after 9 months): IBS symptoms returned
- Abdominal cramping symptoms ([4]; Patient D, upon initiation of low dose treatment, continued over 70 days): immediate relief of abdominal cramping symptoms
- Reduction in stool frequency ([4]; Patient D, upon initiation, continued over 70 day treatment period, before treatment 7-10 unformed diarrheal movements per day): 50%
- IBS symptoms on every other day dosing schedule ([4]; Patients A and C, dosing changed to every other day): IBS symptoms returned
- Side effects ([4]; four patients, 2 mg orally each morning): None of the four patients reported discernible side effects
